Data taken from PMC4635624, “In vitro and in vivo single-agent efficacy of checkpoint kinase inhibition in acute lymphoblastic leukemia” (Journal of Hematology & Oncology, 2015).

Tests used:
Format in all cases: cell-based, human
[1] = tested on: RPMI-8402, BV-173, and SUP-B15 cell lines; assay: Cell cycle analysis (propidium iodide); settings: increasing concentrations, 24 h; concomitant increment of cell debris
Procedure: (§1) The effect of the inhibition of Chk1 pathway on cell cycle progression was evaluated in RPMI-8402, BV-173, SUP-B15, and NALM-6 cell lines. Cells were incubated with increasing concentrations of PF-00477736 for 6 and 24 h and then stained with propidium iodide to quantify the DNA amount.
(§2) In order to evaluate the effect of PF-00477736 on cell cycle progression, NALM-6, SUPB-15, RPMI-8402, and BV-173 cell lines were seeded in a 24-well plate at 500,000 cell/1 ml with increasing concentrations of PF-00477736 (0.1, 0.5, and 1 μM for NALM-6 and SUP-B15; 0.05, 0.1, and 0.2 μM for RPMI-8402 and BV-173). After 6 and 24 h, cells were harvested and fixed overnight using ethanol at 70 %. Then, cells were stained using PI/RNase Staining Buffer according to the manufacturer’s instruction (BD Pharmingen), and the cell cycle profile was detected using FACSCanto II instrument. The percentage of the different cell cycle phases was performed using the DNA cell-cycle analysis software for flow cytometry data, ModFit LT (Verity).

NALM-6 cell line = assay: Cell cycle analysis (propidium iodide); settings: 0.1, 0.5, 1 μM, 24 h; reduced percentage of cells in G1 phase
Procedure: as §1, §2

[2] = tested on: c-Jun in B-/T-ALL cell lines; assay: Western blot against c-Jun; settings: after treatment; response heterogeneous in T-ALL cell lines
Procedure: In order to identify gene expression changes specifically correlated with Chk1 inhibition and to better elucidate the mechanism of action of Chk1 inhibitor, gene expression profiling (GEP) analysis was performed by microarray on treated B/T-ALL cell lines (BV-173, SUP-B15, REH, NALM-6, NALM-19, MOLT-4, RPMI-8402, and CCRF-CEM) and on their untreated counterparts (DMSO 0.1 %) after 24 h of drug exposure. […] To identify peculiar critical pathways affected by Chk1 inhibition, the differentially expressed genes were analyzed in terms of biological function using the MetaCore pathway mapping software (GeneGo Inc.) which categorizes genes in pathway maps, Gene Ontology (GO) cellular processes, and cellular and molecular process networks. […] Finally, the three top scored process networks impaired by the treatment with Chk1 inhibitor were as follows: the DNA damage checkpoint, the S phase of cell cycle, and the apoptosis, confirming the specificity of treatment on its target pathways (Additional file 4). […]
To gain insight into the molecular mechanisms responsible for cell death following treatment, functional analyses by Western blot were performed. […] Finally, all these antibodies were detected using the enhanced chemiluminescence kit ECL (GE) and the compact darkroom ChemiDoc-It (UVP).

B- and T-ALL cell lines = assay: Annexin V/PI staining of apoptotic cells; settings: 0.1, 0.5, 1 μM (0.05, 0.1, 0.2 μM for BV-173 and RPMI-8402), 24 and 48 h; proportional to dose and exposure time
Procedure: In order to assess whether cytotoxicity was correlated to increased susceptibility to apoptosis, B-/T-ALL cell lines were incubated with increasing concentrations of drug (0.1, 0.5, and 1 μM and 0.05, 0.1, and 0.2 μM only for BV-173 and RPMI-8402, respectively) for 24 and 48 h. […] The induction of apoptosis by PF-00477736 was also assessed by the detection of poly (ADP-ribose) polymerase (PARP) cleavage by Western blot analysis.
According to the WST-1 results, three different increasing concentrations of PF-00477736 were used to treat leukemia cells lines in order to detect and discriminate apoptotic, necrotic and dead cells. Cell lines were seeded in 12-well plates at 500,000 cell/1 ml with increasing concentrations of drug (0.1, 0.5 and 1 μM and 0.05, 0.1 and 0.2 μM only for BV-173 and RPMI-8402) for 24 and 48 h and incubated at 37 °C. Following the treatment, cells were harvested and stained with Annexin V/PI according to the manufacturer’s instruction (Roche). The percentage of Annexin V-PI-positive cells was determined within 1 × 10^4 cells of the population by flow cytometry (FACSCanto II, BD Biosciences Pharmingen, San Jose, CA, USA). The mean percentage of Annexin V-PI-positive cells and standard error measurement was calculated from at least two separate experiments.

Cn1cc(-c2[nH]c3cc(NC(=O)[C@H](N)C4CCCCC4)cc4c3c2C=NNC4=O)cn1 [PF-00477736]
cell cycle profile [1]: progressive reduction of the number of cells in S and G2/M phase
cell cycle profile (NALM-6 cell line): progressively increased the percentage of cells in G2/M phase
c-Jun protein levels [2]: c-Jun protein levels increased in all B-ALL cell lines
apoptosis (Annexin V/PI-positive cells) (B- and T-ALL cell lines): significant increase of apoptosis
